# In PMC9234961 (Journal of Medicinal Chemistry, 2022):
# Where two headings read alike, the source gives them in different places.
# Legend:
# [1] = target: kinases (468) (Homo sapiens, UniProt Q9P0L2); details: MARK1; 1000 nM
# [2] = target: kinases (468) (Homo sapiens, UniProt P41743); details: PRKCI; 1000 nM
# [3] = target: kinases (468) (Homo sapiens, UniProt Q96NX5); details: CAMK1G; 1000 nM
# [4] = target: kinases (468) (Homo sapiens, UniProt Q04759); details: PRKCQ; 1000 nM
# [5] = target: kinases (468) (Homo sapiens, UniProt Q16512); details: PKN1; 1000 nM
# [6] = target: kinases (468) (Homo sapiens, UniProt Q9H4B4); details: PLK3; 1000 nM
# Chain of kinases (468) (Homo sapiens, UniProt Q9H4B4) (Q9H4B4 whole entry): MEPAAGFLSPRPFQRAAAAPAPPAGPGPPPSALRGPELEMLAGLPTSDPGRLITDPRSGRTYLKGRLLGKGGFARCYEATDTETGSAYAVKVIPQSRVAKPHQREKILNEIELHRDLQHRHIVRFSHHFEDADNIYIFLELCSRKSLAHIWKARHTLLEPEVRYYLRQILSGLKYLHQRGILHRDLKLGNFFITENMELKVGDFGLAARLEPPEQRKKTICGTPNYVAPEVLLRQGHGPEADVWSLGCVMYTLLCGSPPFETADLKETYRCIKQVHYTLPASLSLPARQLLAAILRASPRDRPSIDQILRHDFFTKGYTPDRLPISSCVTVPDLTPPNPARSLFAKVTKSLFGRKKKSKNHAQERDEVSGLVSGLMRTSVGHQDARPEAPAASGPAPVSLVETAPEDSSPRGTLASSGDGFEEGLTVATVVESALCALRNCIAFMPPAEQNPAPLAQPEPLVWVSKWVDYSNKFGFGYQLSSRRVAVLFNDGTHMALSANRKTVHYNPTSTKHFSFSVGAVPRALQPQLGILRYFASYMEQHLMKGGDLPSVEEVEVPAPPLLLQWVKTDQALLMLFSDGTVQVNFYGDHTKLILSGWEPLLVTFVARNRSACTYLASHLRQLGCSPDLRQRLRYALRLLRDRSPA
# [7] = target: kinases (468) (Homo sapiens, UniProt Q12852); details: DLK (MAP3K12); 1000 nM
# [8] = target: kinases (468) (Homo sapiens, UniProt Q9H422); details: HIPK3; 1000 nM
# [9] = target: kinases (468) (Homo sapiens, UniProt P51955); details: NEK2; 1000 nM
# [10] = target: kinases (468) (Homo sapiens, UniProt P54756); details: EPHA5; 1000 nM
# Chain of kinases (468) (Homo sapiens, UniProt P54756) (P54756 25-1037): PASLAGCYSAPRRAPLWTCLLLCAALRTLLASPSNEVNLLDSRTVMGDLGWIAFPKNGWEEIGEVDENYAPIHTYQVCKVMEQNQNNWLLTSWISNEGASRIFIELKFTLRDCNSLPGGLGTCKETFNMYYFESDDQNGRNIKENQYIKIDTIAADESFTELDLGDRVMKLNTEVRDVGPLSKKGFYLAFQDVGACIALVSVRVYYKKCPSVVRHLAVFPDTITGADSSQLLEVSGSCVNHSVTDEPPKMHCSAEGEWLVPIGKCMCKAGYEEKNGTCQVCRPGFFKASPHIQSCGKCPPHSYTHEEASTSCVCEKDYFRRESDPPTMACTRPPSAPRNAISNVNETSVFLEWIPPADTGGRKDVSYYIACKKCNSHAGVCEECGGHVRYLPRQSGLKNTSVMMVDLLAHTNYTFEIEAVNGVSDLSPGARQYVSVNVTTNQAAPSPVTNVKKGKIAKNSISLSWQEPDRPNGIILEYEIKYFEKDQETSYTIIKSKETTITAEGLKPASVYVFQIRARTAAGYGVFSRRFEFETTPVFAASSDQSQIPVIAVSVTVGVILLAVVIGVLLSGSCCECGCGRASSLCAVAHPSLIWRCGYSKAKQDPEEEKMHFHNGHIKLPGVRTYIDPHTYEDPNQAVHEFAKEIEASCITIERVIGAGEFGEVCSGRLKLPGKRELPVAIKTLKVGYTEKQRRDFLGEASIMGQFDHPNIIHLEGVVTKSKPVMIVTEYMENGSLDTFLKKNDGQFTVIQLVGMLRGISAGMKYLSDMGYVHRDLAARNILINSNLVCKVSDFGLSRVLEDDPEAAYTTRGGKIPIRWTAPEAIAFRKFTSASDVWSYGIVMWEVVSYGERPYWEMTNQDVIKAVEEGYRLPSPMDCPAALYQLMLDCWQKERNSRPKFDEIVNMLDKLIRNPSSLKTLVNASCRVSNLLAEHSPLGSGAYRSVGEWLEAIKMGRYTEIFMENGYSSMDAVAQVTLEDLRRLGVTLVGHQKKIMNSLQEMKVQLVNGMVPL
# [11] = target: kinases (468) (Homo sapiens, UniProt Q13523); details: PRP4 (PRPF4B); 1000 nM
# [12] = target: kinases (468) (Homo sapiens, UniProt O75116); details: kinase ROCK2 (Entrez ROCK2); compound concentration 1000 nM
# [13] = target: kinases (468) (Homo sapiens, UniProt P31751); details: AKT2; 1000 nM
# [14] = target: kinases (468) (Homo sapiens, UniProt O75747); details: PIK3C2G; 1000 nM
# [15] = target: kinases (468) (Homo sapiens, UniProt P29320); details: EPHA3; 1000 nM
# [16] = target: kinases (468) (Homo sapiens, UniProt P07949, M918T); details: kinase RET(M918T) (Entrez RET); compound concentration 1000 nM
# [17] = target: kinases (468) (Homo sapiens, UniProt Q8IVH8); details: MAP4K3; 1000 nM
# [18] = target: kinases (468) (Homo sapiens, UniProt Q9NWZ3); details: IRAK4; 1000 nM
# [19] = target: kinases (468) (Homo sapiens, UniProt Q13546); details: kinase RIPK1 (Entrez RIPK1); compound concentration 1000 nM
# [20] = target: kinases (468) (Homo sapiens, UniProt Q56UN5); details: kinase YSK4 (Entrez MAP3K19); compound concentration 1000 nM
# [21] = target: kinases (468) (Homo sapiens, UniProt P24723); details: PRKCH; 1000 nM
# Chain of kinases (468) (Homo sapiens, UniProt P24723) (P24723 whole entry): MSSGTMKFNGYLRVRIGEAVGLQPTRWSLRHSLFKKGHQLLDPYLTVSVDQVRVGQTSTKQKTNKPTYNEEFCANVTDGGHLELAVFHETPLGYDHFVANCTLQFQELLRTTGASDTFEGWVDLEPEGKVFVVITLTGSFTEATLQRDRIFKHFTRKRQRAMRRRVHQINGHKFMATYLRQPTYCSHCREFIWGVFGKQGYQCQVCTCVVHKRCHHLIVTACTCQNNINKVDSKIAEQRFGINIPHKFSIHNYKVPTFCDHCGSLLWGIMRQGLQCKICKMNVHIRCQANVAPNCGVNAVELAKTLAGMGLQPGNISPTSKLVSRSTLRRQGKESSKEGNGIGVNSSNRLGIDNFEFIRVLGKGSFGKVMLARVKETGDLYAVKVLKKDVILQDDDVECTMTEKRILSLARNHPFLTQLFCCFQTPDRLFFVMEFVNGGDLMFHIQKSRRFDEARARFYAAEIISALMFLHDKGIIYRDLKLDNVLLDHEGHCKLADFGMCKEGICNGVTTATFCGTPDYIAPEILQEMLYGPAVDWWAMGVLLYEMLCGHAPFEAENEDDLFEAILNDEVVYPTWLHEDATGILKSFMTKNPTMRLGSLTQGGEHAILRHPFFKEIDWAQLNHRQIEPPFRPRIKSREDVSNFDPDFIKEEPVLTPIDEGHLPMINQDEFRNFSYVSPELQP
# [22] = target: kinases (468) (Homo sapiens, UniProt Q15831); details: LKB1 (STK11); 1000 nM
# [23] = target: kinases (468) (Homo sapiens, UniProt Q7KZI7); details: MARK2; 1000 nM
# [24] = target: kinases (468) (Homo sapiens, UniProt Q06418); details: kinase TYRO3 (Entrez TYRO3); compound concentration 1000 nM
# Chain of kinases (468) (Homo sapiens, UniProt Q06418) (Q06418 41-890): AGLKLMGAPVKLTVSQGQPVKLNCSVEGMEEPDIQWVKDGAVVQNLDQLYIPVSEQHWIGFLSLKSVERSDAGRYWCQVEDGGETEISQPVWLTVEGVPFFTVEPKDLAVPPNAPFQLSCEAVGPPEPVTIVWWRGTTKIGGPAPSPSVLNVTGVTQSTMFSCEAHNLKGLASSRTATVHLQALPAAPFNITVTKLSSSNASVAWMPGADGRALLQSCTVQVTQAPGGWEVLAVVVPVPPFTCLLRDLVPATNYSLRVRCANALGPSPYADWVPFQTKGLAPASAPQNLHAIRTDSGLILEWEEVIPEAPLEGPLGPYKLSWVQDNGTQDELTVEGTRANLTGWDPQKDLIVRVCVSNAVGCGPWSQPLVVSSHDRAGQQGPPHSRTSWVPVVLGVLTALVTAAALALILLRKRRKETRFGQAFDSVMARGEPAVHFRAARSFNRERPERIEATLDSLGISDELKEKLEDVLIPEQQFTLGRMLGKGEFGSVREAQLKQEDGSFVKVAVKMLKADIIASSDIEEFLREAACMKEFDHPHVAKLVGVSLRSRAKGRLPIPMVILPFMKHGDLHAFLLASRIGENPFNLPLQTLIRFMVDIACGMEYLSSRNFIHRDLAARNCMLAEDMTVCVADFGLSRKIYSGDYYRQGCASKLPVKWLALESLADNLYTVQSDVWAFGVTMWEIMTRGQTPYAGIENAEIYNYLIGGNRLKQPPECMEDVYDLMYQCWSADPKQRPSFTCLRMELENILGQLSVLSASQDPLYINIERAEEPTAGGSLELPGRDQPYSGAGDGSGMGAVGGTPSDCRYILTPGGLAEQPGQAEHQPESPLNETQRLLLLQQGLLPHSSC
# [25] = target: kinases (468) (Homo sapiens, UniProt P10721, V559D); details: KIT(V559D); 1000 nM
# [26] = target: kinases (468) (Homo sapiens, UniProt P00519); details: 1000 nM
# [27] = target: kinases (468) (Homo sapiens, UniProt Q8NG66); details: NEK11; 1000 nM
# [28] = target: kinases (468) (Homo sapiens, UniProt Q16832); details: DDR2; 1000 nM
# Chain of kinases (468) (Homo sapiens, UniProt Q16832) (Q16832 22-855): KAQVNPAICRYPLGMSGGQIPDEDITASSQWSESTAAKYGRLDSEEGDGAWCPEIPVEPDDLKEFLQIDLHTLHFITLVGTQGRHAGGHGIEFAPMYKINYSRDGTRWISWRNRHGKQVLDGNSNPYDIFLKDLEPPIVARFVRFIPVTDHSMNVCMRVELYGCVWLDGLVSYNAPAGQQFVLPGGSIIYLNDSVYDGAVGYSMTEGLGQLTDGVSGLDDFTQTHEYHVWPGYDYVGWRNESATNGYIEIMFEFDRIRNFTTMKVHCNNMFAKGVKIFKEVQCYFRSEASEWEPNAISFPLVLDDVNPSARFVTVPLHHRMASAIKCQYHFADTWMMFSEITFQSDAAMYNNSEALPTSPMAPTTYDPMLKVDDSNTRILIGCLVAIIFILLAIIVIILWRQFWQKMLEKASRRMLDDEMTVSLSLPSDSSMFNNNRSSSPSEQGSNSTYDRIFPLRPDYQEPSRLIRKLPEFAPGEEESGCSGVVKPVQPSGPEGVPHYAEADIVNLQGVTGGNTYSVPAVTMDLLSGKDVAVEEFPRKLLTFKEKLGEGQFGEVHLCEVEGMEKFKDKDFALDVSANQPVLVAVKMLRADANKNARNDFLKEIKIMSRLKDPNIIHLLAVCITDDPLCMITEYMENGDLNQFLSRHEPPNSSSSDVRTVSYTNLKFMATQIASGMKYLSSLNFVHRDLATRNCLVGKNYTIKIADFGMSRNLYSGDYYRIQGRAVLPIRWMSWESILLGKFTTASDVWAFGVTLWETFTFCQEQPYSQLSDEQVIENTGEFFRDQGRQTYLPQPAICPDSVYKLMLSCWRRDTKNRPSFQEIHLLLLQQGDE
# [29] = target: kinases (468) (Homo sapiens, UniProt P37173); details: kinase TGFBR2 (Entrez TGFBR2); compound concentration 1000 nM
# [30] = target: kinases (468) (Homo sapiens, UniProt P00519, Q252H); details: 1000 nM
# [31] = target: kinases (468) (Homo sapiens, UniProt Q15139); details: PRKD1; 1000 nM
# [32] = target: kinases (468) (Homo sapiens, UniProt Q9UIK4); details: DAPK2; 1000 nM
# [33] = target: kinases (468) (Homo sapiens, UniProt Q16816); details: PHKG1; 1000 nM
# [34] = target: kinases (468) (Homo sapiens, UniProt P36888, D835Y); details: FLT3(D835Y); 1000 nM
# [35] = target: kinases (468) (Homo sapiens, UniProt P21802); details: FGFR2; 1000 nM
# Chain of kinases (468) (Homo sapiens, UniProt Q9P0L2) (Q9P0L2 whole entry): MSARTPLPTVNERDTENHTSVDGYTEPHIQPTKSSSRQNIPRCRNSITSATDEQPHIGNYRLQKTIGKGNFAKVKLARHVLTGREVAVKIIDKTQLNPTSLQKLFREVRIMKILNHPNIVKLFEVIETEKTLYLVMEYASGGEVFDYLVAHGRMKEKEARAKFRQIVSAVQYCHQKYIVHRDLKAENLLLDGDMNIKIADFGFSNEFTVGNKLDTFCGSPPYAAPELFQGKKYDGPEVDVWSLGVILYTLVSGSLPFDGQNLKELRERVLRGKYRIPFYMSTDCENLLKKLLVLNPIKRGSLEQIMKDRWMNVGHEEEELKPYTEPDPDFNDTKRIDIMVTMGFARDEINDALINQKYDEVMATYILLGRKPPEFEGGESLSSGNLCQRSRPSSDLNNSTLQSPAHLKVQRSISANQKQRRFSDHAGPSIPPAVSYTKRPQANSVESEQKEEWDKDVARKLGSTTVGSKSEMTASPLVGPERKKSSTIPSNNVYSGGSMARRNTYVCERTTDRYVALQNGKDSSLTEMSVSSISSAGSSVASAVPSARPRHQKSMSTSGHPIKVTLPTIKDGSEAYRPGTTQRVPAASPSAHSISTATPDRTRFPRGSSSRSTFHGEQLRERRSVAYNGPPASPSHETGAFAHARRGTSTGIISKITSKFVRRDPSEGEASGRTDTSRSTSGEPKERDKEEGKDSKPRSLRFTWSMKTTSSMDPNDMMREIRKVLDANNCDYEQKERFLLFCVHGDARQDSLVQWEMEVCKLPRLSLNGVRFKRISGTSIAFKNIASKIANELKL
smiles,measurement,setting,value
C[C@H]1C[C@@H](O)CN(c2ncc(Cl)c(Nc3ccc4c(c3)c3c(c(=O)n4C)OCC(F)(F)[C@H](C4CC4)N3)n2)C1 [CCT373566_9A],Percent Control,[1],100%
same,Percent Control,[2],88%
same,Percent Control,[3],96%
same,Percent Control,[4],100%
same,Percent Control,[5],100%
same,Percent Control,[6],78%
same,Percent Control,[7],96%
same,Percent Control,[8],100%
same,Percent Control,[9],92%
same,Percent Control,[10],98%
same,Percent Control,[11],94%
same,Percent Control,[12],94%
same,Percent Control,[13],100%
same,Percent Control,[14],86%
same,Percent Control,[15],85%
same,Percent Control,[16],100%
same,Percent Control,[17],100%
same,Percent Control,[18],80%
same,Percent Control,[19],100%
same,Percent Control,[20],100%
same,Percent Control,[21],94%
same,Percent Control,[22],65%
same,Percent Control,[23],93%
same,Percent Control,[24],100%
same,Percent Control,[25],100%
same,Percent Control,[26]; ABL1-nonphosphorylated,92%
same,Percent Control,[26]; ABL1-phosphorylated,99%
same,Percent Control,[27],95%
same,Percent Control,[28],100%
same,Percent Control,[29],100%
same,Percent Control,[30]; ABL1(Q252H)-nonphosphorylated,94%
same,Percent Control,[30]; ABL1(Q252H)-phosphorylated,98%
same,Percent Control,[31],98%
same,Percent Control,[32],99%
same,Percent Control,[33],97%
same,Percent Control,[34],90%
same,Percent Control,[35],100%
